Holding throughout (format): biochemical
Test [1] deals with T1, Human PI3K beta (Homo sapiens, UniProt P42338).
T1 construct: His (N); host or cells: SF9 insect cells (baculovirus)
Nature of the test: Human PI3K beta enzyme assay (HTRF). A digest of the protocol:
(§1)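 Compounds were mixed with 25 uM ATP, then with 3.5 uM di-C8 PI(4,5)P2 and His-tagged PI3K isoform (β 5.25 nM, δ 0.75 nM, γ 5 nM) at pH 7.00. After 30 min at room temperature, EDTA stopped the reaction and PIP3 was measured by HTRF over 1 h.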

Test [2] has as its target T2, Human PI3K delta (Homo sapiens, UniProt O00329).
T2 construct: His (N); host or cells: SF9 insect cells (baculovirus)
Nature of the test: Human PI3K delta enzyme assay (HTRF). Summed up:
as §1
(In general: TR-FRET usually uses a lanthanide donor and a delayed reading to cut background.)

Test [3] deals with T3, Human VPS34 (Homo sapiens, UniProt Q8NEB9).
T3 construct: GST (with thrombin site, pDEST20-Thrombin) (N); host or cells: SF9 insect cells (baculovirus)
Nature of the test: Human VPS34 enzyme assay (Adapta Universal Kinase Assay). The settings on record: at a 1.0 μM concentration; read-out: VPS34 Percent Inhibition. The source says:
The catalytic subunits of PI3Ks are cloned into either pDEST8(p110 alpha) or pDEST10(p110beta, p110delta, and p110gamma) as N-terminal His tagged fusion proteins using the Gateway system (Invitrogen, catalog#11804-010 for pDEST8 and 11806-015 for pDEST10). The sequences are verified before recombinant protein expression using the Baculovirus Expression System with Gateway® Technology. The accession numbers for the subunits are as follows: • p110 alpha (GB:U79143) • p110beta (GB: S67334) • p110delta (GB: U86453) • p110gamma (GB: X83368) • The regulatory subunits of PI3Ks are cloned into pDEST8 as un-tagged protein using the Gateway system (Catalog#11804-010). The sequences are verified before recombinant protein expression using the Baculovirus Expression System with Gateway® Technology. The accession numbers for the subunits are as following: • p85 alpha (GB: BC030815) • p101(GB: AB028925) • VPS34 (accession number GB:BC033004) is cloned into pDEST20—Thombin as N-terminal GST tagged fusion proteins using the Gateway system (Invitrogen, catalog#11804-013). The sequences are verified before recombinant protein expression using the Baculovirus Expression System with Gateway® Technology.
For expression VPS34 was infected at 1MOI in SF9 cells and harvested 72 hours post infection.
For purification, VPS34 is purified by Glutathione Sepharose 4 Fast Flow (GE Healthcare #17-5132-03) followed by HiTrap Q (GE Healthcare #17-1153-01).
3) VPS34 is assayed using Adapta™ Universal Kinase Assay Kit (Invitrogen).
4) Human VPS34 enzyme assay method
100 nL compounds in DMSO are added to wells of a 384 well microtitre plate (Greiner 780076). At room temperature: 5 ul VPS34 reaction buffer (Invitrogen Assay Buffer Q (diluted 1 in 5 with nanopure water) plus 2 mM DTT and 2 mM MnCl2) containing ATP (20 uM, Promega) and 200 uM PI—PS substrate (Invitrogen PV5122) is added followed immediately by 5 ul VPS34 reaction buffer (as above) containing VPS34 (5 nM, Millennium Protein Sciences Group) and the mixture is incubated with shaking at room temperature for 1 hour. Then 5 ul VPS34 stop-detect mix (as per Invitrogen Adapta Assay kit (PV5009) instructions (contains kinase quench buffer, TR-FRET buffer, Adapta Eu anti-ADP antibody and Alexa Fluor 647 ADP tracer)) is added to quench the reaction. The plates are then incubated for 30 minutes at room temperature with shaking and then read on a BMG PheraStar Plus reader.
For the assay methods described above, test compound percent inhibition, at various concentrations, is calculated relative to control (DMSO and EDTA) treated samples. Compound concentration versus percent inhibition curves are fitted to generate IC50 values. One skilled in the art will appreciate that the values generated either as percentage inhibition at a single concentration or IC50 values are subject to experimental variation.

Test [4] has as its target T4, Human PI3K alpha (Homo sapiens, UniProt P42336).
T4 construct: His (N); host or cells: SF9 insect cells (baculovirus)
Nature of the test: Human PI3K alpha enzyme assay (HTRF).

The target in test [5] is T5, Human PI3K gamma (Homo sapiens, UniProt P48736).
T5 construct: His (N); host or cells: SF9 insect cells (baculovirus)
T5 sequence (P48736 whole entry): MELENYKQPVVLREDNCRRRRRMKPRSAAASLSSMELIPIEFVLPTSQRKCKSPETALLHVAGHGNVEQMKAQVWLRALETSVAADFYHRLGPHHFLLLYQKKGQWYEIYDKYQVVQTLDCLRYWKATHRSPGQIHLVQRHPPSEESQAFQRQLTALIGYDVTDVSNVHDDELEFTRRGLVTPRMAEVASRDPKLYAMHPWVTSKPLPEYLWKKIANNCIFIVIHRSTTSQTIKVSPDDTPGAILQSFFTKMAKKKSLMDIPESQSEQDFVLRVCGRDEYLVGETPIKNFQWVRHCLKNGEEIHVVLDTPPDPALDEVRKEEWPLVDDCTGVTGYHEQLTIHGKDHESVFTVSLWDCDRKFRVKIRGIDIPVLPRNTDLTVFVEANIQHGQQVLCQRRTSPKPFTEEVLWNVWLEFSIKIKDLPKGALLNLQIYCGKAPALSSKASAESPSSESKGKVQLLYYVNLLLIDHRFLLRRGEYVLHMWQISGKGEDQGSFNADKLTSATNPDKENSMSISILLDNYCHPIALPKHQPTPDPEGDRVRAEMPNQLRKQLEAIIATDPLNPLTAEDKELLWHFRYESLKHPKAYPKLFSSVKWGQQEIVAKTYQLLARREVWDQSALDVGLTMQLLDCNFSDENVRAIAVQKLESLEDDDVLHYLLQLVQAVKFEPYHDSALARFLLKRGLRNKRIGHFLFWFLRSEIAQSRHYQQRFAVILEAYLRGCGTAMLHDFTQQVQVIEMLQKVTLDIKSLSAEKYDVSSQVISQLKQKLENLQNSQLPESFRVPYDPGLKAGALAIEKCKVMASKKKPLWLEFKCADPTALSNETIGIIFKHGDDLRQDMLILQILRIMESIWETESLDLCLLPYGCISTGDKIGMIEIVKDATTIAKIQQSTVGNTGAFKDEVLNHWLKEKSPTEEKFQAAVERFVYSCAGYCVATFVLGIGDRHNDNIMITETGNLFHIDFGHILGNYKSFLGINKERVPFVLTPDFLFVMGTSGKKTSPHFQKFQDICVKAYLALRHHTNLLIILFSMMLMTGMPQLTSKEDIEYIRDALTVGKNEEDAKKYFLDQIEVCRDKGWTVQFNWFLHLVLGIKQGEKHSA
Nature of the test: Human PI3K gamma enzyme assay (HTRF). Summed up:
as §1

[6] abbreviates: at a 1.1 μM concentration, read-out: PI3β Percent Inhibition.
Where [7] appears, read: at a 1.0 μM concentration, read-out: PI3Kδ Percent Inhibition.
[8] abbreviates: at a 1.1 μM concentration, read-out: PI3Kα Percent Inhibition.
[9] abbreviates: at a 1.0 μM concentration, read-out: PI3Kγ Percent Inhibition.
The mark [10] stands for this setting: concentration not given, b1387 states 1.1 μM for PI3K α and β, read-out: p110 beta Percent Inhibition.
[11] abbreviates: concentration not given, b1389 states 1.0 μM for PI3K δ and γ, read-out: p110 delta Percent Inhibition.
Where [12] appears, read: concentration not given, b1387 states 1.1 μM for PI3K α and β, read-out: p110 alpha Percent Inhibition.
Where [13] appears, read: concentration not given, b1389 states 1.0 μM for PI3K δ and γ, read-out: p110 gamma Percent Inhibition.
Where [14] appears, read: concentration not given, b1387 states 1.1 μM for PI3K α and β.
Setting [15] is: concentration not given, b1389 states 1.0 μM for PI3K δ and γ.
Where [16] appears, read: read-out: p110 beta Percent Inhibition.
The mark [17] stands for this setting: read-out: p110 delta Percent Inhibition.
Setting [18] is: read-out: p110 alpha Percent Inhibition.
Setting [19] is: read-out: p110 gamma Percent Inhibition.

Structures are written as SMILES. Where two headings read alike, the source gives them in different places.

T4 sequence (P42336 whole entry): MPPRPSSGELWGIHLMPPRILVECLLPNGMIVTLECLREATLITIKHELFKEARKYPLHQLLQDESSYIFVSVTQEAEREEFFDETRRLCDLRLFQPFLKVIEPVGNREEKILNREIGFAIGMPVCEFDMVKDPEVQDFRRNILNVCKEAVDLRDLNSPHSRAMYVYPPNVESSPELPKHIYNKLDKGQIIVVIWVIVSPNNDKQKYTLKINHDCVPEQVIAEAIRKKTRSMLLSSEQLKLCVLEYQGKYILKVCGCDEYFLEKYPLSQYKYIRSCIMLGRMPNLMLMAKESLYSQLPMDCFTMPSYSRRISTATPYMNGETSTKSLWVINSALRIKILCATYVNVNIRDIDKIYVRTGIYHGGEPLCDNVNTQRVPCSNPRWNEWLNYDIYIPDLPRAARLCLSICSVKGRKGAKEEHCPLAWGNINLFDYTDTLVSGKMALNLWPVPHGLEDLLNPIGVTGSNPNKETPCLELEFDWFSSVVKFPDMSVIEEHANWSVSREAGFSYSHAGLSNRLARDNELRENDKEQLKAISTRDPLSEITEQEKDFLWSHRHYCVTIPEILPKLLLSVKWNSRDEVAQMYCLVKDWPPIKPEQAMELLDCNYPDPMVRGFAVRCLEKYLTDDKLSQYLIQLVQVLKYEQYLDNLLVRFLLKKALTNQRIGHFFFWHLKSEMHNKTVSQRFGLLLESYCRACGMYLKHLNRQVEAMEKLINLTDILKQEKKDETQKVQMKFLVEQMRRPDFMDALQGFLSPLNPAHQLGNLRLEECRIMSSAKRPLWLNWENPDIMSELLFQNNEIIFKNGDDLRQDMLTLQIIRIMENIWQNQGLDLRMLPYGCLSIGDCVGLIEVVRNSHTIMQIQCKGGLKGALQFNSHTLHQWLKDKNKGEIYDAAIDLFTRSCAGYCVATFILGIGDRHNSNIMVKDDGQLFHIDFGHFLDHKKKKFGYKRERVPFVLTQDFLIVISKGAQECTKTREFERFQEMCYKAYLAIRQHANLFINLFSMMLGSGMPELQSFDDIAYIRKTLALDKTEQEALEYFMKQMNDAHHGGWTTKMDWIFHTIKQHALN
T4 sequence (P27986 whole entry partner): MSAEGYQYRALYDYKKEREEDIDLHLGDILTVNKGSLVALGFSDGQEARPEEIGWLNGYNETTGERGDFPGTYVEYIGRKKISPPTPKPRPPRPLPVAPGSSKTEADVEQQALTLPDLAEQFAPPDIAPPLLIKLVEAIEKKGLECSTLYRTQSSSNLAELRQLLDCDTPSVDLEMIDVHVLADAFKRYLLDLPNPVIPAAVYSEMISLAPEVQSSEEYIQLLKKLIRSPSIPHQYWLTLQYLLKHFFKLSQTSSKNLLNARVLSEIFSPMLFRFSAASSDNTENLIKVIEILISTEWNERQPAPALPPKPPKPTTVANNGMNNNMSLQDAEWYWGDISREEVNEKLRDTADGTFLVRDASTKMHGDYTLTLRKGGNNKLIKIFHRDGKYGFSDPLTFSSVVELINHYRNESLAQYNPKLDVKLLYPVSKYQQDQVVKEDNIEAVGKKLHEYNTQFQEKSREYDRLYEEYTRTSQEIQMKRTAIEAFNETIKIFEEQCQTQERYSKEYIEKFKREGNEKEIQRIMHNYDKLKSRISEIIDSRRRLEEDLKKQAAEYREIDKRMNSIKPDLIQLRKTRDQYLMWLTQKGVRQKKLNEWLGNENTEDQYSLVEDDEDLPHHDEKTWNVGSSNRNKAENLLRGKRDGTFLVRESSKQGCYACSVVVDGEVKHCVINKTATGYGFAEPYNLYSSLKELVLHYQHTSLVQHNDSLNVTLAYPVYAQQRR
T2 sequence (O00329 whole entry): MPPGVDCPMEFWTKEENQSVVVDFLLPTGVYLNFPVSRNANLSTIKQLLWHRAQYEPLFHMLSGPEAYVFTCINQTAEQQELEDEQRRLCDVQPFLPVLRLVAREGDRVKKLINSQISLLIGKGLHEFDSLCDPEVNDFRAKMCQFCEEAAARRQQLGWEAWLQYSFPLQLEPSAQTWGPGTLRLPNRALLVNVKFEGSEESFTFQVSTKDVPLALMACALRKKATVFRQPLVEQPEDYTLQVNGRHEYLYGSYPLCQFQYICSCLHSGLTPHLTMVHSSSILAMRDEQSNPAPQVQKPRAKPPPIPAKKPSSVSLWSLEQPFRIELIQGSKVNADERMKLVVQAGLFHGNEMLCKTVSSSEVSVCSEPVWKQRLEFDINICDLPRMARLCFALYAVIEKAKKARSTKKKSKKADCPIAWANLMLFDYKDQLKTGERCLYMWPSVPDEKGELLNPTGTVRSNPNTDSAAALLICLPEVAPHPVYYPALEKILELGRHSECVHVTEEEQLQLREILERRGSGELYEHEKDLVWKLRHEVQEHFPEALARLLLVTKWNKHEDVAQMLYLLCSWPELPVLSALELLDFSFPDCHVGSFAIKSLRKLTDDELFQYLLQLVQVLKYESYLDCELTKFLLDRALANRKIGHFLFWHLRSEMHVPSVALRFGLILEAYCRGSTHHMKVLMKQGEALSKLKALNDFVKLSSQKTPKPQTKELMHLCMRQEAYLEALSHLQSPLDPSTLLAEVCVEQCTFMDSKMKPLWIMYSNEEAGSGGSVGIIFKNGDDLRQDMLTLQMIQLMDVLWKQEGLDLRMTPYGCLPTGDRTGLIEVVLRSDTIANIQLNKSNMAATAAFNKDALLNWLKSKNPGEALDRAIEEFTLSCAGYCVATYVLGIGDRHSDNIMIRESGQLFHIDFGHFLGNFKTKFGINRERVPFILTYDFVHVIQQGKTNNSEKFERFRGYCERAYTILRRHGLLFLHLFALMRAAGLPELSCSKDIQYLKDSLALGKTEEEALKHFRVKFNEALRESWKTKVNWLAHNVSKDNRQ
T2 sequence (P27986 whole entry partner): as the sequence (P27986 whole entry partner) above
T1 sequence (P42338 whole entry): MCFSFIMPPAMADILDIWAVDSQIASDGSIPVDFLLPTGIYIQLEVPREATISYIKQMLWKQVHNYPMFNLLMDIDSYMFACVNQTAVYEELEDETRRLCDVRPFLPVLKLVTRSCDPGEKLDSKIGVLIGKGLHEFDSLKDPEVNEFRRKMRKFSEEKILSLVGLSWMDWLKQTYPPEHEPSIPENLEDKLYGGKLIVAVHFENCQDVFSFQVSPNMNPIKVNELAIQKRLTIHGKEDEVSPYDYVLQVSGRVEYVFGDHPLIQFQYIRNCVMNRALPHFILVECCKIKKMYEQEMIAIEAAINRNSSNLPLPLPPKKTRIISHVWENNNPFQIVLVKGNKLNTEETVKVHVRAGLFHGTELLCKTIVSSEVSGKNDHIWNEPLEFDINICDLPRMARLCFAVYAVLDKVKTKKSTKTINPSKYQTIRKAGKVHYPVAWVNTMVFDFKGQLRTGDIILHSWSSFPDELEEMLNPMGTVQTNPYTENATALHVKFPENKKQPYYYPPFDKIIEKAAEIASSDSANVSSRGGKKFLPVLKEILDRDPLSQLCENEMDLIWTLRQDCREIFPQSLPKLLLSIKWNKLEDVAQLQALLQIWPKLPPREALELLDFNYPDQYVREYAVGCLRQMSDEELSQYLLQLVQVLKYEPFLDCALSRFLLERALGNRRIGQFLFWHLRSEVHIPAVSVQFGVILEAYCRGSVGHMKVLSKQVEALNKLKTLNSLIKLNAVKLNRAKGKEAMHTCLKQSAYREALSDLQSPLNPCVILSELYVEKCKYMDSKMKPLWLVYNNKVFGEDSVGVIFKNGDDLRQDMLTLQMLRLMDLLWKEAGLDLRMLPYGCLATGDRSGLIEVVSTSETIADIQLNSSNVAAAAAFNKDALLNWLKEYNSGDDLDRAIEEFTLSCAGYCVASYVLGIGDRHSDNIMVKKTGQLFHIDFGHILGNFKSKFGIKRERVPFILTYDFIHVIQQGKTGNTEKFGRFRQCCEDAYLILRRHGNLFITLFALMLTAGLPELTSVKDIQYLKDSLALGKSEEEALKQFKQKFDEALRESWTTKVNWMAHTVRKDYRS
T1 sequence (P27986 whole entry partner): as the sequence (P27986 whole entry partner) above

As for `N#Cc1ccc(Cc2nc(N3CCOCC3)sc2C(=O)O)cc1` [Compound 93], the inhibition at 1.1 µM is 80% in test [1] (setting [6]) and 9% in test [4] (setting [8]). In addition, the inhibition at 1 µM in test [2] (setting [7]) turned out to be 46%; in test [3] it was 19.2%; in test [5] (setting [9]), 9.5%.
For `N#Cc1c(N2CCOCC2)sc(C(=O)O)c1Cc1ccc(Cl)c(F)c1` [Compound 94, 3-(4-chloro-3-fluorobenzyl)-4-cyano-5-morpholin-4-ylthiophene-2-carboxylic acid] the same measures were 97%, 58%, 102%, 30.6% and 52.6%.
In the case of `CC(=O)NC(c1ccc(Cl)cc1)c1c(C(=O)O)sc(N2CCOCC2)c1C#N` (stereo not shown) [Compound 353], the inhibition at 1.1 µM in test [1] (setting [10]) was 87%; in test [4] (setting [12]) it was 19%. Besides, the inhibition at 1 µM in test [2] (setting [11]) amounted to 80%; in test [5] (setting [13]) it was 15%.
The like results for `COC(=O)NC(c1ccc2ccccc2c1)c1c(C(=O)O)sc(N2CCOCC2)c1C#N` (stereo not shown) [Compound 354] were, in that order, 111%, 89%, 99% and 40%.
As for `C=CCC(c1ccc(Cl)c(Cl)c1)c1c(C(=O)O)sc(N2CCOCC2)c1C#N` (stereo not shown) [Compound 355, 4-cyano-3-[1-(3,4-dichlorophenyl)but-3-en-1-yl]-5-(morpholin-4-yl)thiophene-2-carboxylic acid], the inhibition at 1.1 µM came to 100% in test [1] (setting [10]) and 44% in test [4] (setting [12]). Further, the inhibition at 1 µM in test [2] (setting [11]) was found to be 105%; in test [5] (setting [13]), 53%.
For `c1ccc2cc(Cc3cc(N4CCOCC4)sc3-c3nnn[nH]3)ccc2c1` [Compound 356] the same measures were 95%, 11%, 72% and 23%.
The like results for `N#Cc1c(N2CCOCC2)sc(C(=O)O)c1C(N)c1ccc2ccccc2c1` (stereo not shown) [Compound 357] were, in that order, 110%, 89%, 110% and 79%.
With `N#Cc1c(N2CCOCC2)sc(C(=O)O)c1C(F)(F)c1ccc(Cl)cc1` [Compound 358], the inhibition at 1.1 µM in test [1] (setting [10]) worked out at 43%; in test [4] (setting [12]) it was 13%. Besides, the inhibition at 1 µM in test [2] (setting [11]) amounted to 51%; in test [5] (setting [13]), 32%.
For the compound `N#Cc1c(N2CCOCC2)sc(C(=O)O)c1Cc1cc2ccc(Cl)cc2[nH]1` [Compound 359], the inhibition at 1.1 µM in test [1] (setting [10]) is 109%; in test [4] (setting [12]) it was 90%. Further, the figures for the inhibition at 1 µM in test [2] (setting [11]) and in test [5] (setting [13]) were 102% and 64%, respectively.
For the compound `c1ccc2cc(Cc3nc(N4CCOCC4)sc3-c3nnn[nH]3)ccc2c1` [Compound 360, 4-[4-(2-naphthylmethyl)-5-(1H-tetrazol-5-yl)-1,3-thiazol-2-yl]morpholine], the “p110 beta Percent Inhibition” value in test [1] (setting [14]) is 106%. The “p110 delta Percent Inhibition” value in test [2] (setting [15]) was 110%. In test [4] (setting [14]), the “p110 alpha Percent Inhibition” value is recorded as 30%. Moreover, the “p110 gamma Percent Inhibition” value in test [5] (setting [15]) came to 49%.
For the compound `COc1ccc2ccc(Cc3c(C(=O)O)sc(N4CCOCC4)c3C#N)cc2c1` [Compound 361], the results for the inhibition at 1.1 µM in test [1] (setting [10]) and in test [4] (setting [12]) were 115% and 104%, respectively. In addition, the inhibition at 1 µM is 111% in test [2] (setting [11]) and 60% in test [5] (setting [13]).
`CN(C)C(c1ccc(Cl)c(Cl)c1)c1c(C(=O)O)sc(N2CCOCC2)c1C#N` (stereo not shown) [Compound 362, 4-cyano-3-[(3,4-dichlorophenyl)(dimethylamino)methyl]-5-(morpholin-4-yl)thiophene-2-carboxylic acid]: the “p110 beta Percent Inhibition” value in test [1] (setting [14]) was found to be 116%. Besides, the “p110 delta Percent Inhibition” value in test [2] (setting [15]) is recorded as 104%. Moreover, in test [4] (setting [14]), the “p110 alpha Percent Inhibition” value was 80%. Besides, the “p110 gamma Percent Inhibition” value in test [5] (setting [15]) stood at 44%.
With `N#Cc1c(N2CCOCC2)sc(C(=O)O)c1C(CCO)c1ccc2ccccc2c1` (stereo not shown) [Compound 363], in test [1] (setting [14]), the “p110 beta Percent Inhibition” value stood at 113%. Moreover, in test [2] (setting [15]), the “p110 delta Percent Inhibition” value is given as 106%. In addition, the “p110 alpha Percent Inhibition” value in test [4] (setting [14]) amounted to 99%. Besides, the “p110 gamma Percent Inhibition” value in test [5] (setting [15]) is reported as 65%.
As for `N#Cc1c(N2CCOCC2)sc(C(=O)O)c1C(F)c1ccc2ccccc2c1` (stereo not shown) [Compound 364], the “p110 beta Percent Inhibition” value in test [1] (setting [14]) stood at 109%. The “p110 delta Percent Inhibition” value in test [2] (setting [15]) is 101%. Besides, the “p110 alpha Percent Inhibition” value in test [4] (setting [14]) came out at 88%. In addition, the “p110 gamma Percent Inhibition” value in test [5] (setting [15]) is listed as 56%.
With `N#Cc1c(N2CCOCC2)sc(C(=O)O)c1C(CCF)c1ccc2ccccc2c1` (stereo not shown) [Compound 365], in test [1] (setting [14]), the “p110 beta Percent Inhibition” value worked out at 117%. Further, the “p110 delta Percent Inhibition” value in test [2] (setting [15]) amounted to 112%. The “p110 alpha Percent Inhibition” value in test [4] (setting [14]) was found to be 105%. In test [5] (setting [15]), the “p110 gamma Percent Inhibition” value was 63%.
For `CC(c1ccc(Cl)c(Cl)c1)c1c(C(=O)O)sc(N2CCOCC2)c1C#N` (stereo not shown) [Compound 366] the same measures were 113%, 113%, 66% and 77%.
Regarding `CC(c1ccc2ccccc2c1)c1c(C(=O)O)sc(N2CCOCC2)c1C#N` (stereo not shown) [Compound 367, 4-cyano-5-(morpholin-4-yl)-3-[1-(2-naphthyl)ethyl]thiophene-2-carboxylic acid], the inhibition at 1.1 µM came to 110% in test [1] (setting [16]) and 99% in test [4] (setting [18]). The inhibition at 1 µM in test [2] (setting [17]) stood at 116%; in test [5] (setting [19]), 72%.
With `COC(c1ccc2ccccc2c1)c1c(C(=O)O)sc(N2CCOCC2)c1C#N` (stereo not shown) [Compound 368, 4-cyano-3-[methoxy(2-naphthyl)methyl]-5-(morpholin-4-yl)thiophene-2-carboxylic acid], the inhibition at 1.1 µM in test [1] (setting [10]) stood at 112%; in test [4] (setting [12]), 89%. Moreover, the “p110 delta Percent Inhibition” value in test [2] (setting [15]) is on record as 113%. Besides, the inhibition at 1 µM in test [5] (setting [13]) was 87%.
On to `CC(c1ccc2cc(F)ccc2c1)c1c(C(=O)O)sc(N2CCOCC2)c1C#N` (stereo not shown) [Compound 369], for which the “p110 beta Percent Inhibition” value in test [1] (setting [14]) was 115%. Moreover, the “p110 delta Percent Inhibition” value in test [2] (setting [15]) is given as 109%. In addition, the “p110 alpha Percent Inhibition” value in test [4] (setting [14]) is reported as 109%. In addition, the “p110 gamma Percent Inhibition” value in test [5] (setting [15]) is given as 65%.
Regarding `O=C(O)c1[se]c(N2CCOCC2)nc1Cc1ccc(Cl)cc1` [Compound 370, 4-(4-chlorobenzyl)-2-morpholino-1,3-selenazole-5-carboxylic acid], the inhibition at 1.1 µM in test [1] (setting [16]) was 98%; in test [4] (setting [18]) it was 22%. In addition, the inhibition at 1 µM in test [2] (setting [17]) stood at 62%; in test [5] (setting [19]), 12%.

The values are drawn from US8796268B2, “Heteroaryls and uses thereof” (Millennium Pharmaceuticals, Inc., priority 2010, dated 2014).
